The target in this experiment is T1, ADAMTS13 (Homo sapiens, UniProt Q76LX8).
T1 sequence (Q76LX8 75-1427): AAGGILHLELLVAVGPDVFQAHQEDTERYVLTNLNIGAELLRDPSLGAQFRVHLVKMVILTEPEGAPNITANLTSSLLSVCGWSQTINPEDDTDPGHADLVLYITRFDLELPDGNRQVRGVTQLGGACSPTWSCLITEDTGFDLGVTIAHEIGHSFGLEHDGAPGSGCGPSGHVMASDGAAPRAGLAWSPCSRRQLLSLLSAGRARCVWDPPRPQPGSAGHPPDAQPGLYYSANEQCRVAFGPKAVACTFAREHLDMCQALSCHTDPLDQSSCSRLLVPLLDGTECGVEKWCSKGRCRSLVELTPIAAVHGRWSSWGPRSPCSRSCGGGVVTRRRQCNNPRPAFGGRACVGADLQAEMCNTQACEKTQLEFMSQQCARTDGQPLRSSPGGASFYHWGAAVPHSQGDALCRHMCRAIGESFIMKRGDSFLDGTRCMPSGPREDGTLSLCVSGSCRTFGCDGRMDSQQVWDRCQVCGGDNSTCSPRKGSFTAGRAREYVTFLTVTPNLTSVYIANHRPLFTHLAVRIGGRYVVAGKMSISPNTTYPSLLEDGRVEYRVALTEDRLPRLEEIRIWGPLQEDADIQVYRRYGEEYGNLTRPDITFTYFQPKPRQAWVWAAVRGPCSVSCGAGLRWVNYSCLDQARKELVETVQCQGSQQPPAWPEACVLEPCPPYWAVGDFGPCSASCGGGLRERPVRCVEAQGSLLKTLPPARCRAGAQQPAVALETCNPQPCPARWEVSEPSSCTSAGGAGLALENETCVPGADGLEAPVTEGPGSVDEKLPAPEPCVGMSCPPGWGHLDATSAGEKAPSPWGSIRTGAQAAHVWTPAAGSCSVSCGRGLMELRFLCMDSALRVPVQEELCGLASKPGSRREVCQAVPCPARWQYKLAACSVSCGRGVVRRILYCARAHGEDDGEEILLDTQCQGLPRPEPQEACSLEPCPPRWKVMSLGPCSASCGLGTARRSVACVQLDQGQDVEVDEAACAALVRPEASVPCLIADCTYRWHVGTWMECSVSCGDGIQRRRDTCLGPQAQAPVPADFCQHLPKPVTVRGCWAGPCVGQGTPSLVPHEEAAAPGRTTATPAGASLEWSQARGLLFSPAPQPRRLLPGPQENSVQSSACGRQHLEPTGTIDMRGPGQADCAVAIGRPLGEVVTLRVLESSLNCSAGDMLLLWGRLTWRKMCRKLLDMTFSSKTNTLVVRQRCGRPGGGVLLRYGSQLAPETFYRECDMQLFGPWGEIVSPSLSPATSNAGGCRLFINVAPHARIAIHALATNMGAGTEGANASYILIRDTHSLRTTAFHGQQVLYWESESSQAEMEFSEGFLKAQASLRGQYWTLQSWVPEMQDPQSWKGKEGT
The experiment is described as follows: ADAMTS13 activity of plasma samples with FRETS-rVWF71 substrate. It is filed as biochemical. To be noted: samples from patients with idiopathic TTP. Details: from tissue; host or cells: human plasma or serum (pooled normal plasma, healthy donors, TTP patients). How it is done:
Assays were performed at 30° C. Samples (100 μL) of plasma or serum, diluted as necessary in assay buffer, were pipetted in duplicate in 96 well white microplates (Optiplate-96, PerkinElmer, Waltham, Mass.). Reaction was initiated by addition of 100 μL substrate in assay buffer. Cleavage of FRETS-rVWF71 was detected as an increase in fluorescence compared to control reactions without added enzyme at 2 min intervals using a Victor^2V Multilabel Counter (PerkinElmer, Waltham, Mass.) or Synergy H1 Hybrid Multi-Mode Microplate Reader (Biotek, Winooski, Vt.) equipped with 635±10 nm excitation and 660±10 nm emission filters. Initial velocities were determined by fitting progress curves to the polynomial ΔF=A+Bt+Ct^2, where ΔF is the change in fluorescence, t is time, A is the y-intercept, B is the initial velocity (slope), and the term Ct^2 accounts for any decline in velocity due to substrate consumption or photobleaching.
In these experiments, frozen Li^+-heparin plasma samples were obtained from 100 healthy controls (Biological Specialty Corp., Colmar, Pa.) deidentified except for demographic information on gender, age, and ethnicity. Pooled normal Li^+-heparin plasma (PNP) for assay standardization was prepared from at least 35 donors. […] activity of randomly selected controls samples was determined by the FRETS-VWF73 method. […]

* marks the point of attachment. X1 = CC1(C)C(/C=C/C2=C(Cl)C(=C/C=C3/N(CCCCCC(=O)*)c4ccc5cc(S(=O)(=O)O)ccc5c4C3(C)C)/CCC2)=[N+](CCCS(=O)(=O)[O-])c2ccc(N(CCCS(=O)(=O)O)CCCS(=O)(=O)O)cc21; X2 = CC(C)(C)c1cc(/C=C/C=C2\N(CCCS(=O)(=O)O)c3ccc(S(=O)(=O)O)cc3C2(C)CCCC(=O)CCN2C(=O)CC(*)C2=O)c2ccc(N(CCCS(=O)(=O)[O-])CCCS(=O)(=O)O)cc2[o+]1

As for “X1-GQAPNLVYMVTGC(X2)PASDEIRRLPGDIQVVPIGVGPNANVQELERIGWPNAPILIQDFETLPREAPDLVLQR [FRETS-rVWF71]”, the “sensitivity of ADAMTS13 activity assay relative to FRETS-VWF73” value worked out at 20 fold.

The values above are taken from patent US8663912B2, “Fluorogenic substrate for ADAMTS13” (Washington University, priority 2011, dated 2014).
